Assay [1] deals with WT and Tac1::Calca DKO mice. Description: Oxaliplatin cold allodynia, Cold Plate. In kind it is in vivo, mouse. Particulars: intraplantar oxaliplatin, one day after treatment, Cold Plate at 10 °C, 5 min. From the text: The plate was set to the desired temperature. A camera set up with a mirror was used for better visibility of the mouse on the hot plate. A clear cylindrical tube was placed around the hot plate to ensure the mouse cannot escape. Once the hot plate reached the set temperature, the mouse was placed on the hot plate and the top of the cylinder was covered. At the cut-off time, the mouse was taken off the hot plate and placed back in the cage. The latency to lick was scored post-hoc using the recorded videos by a blinded observer.
Chemotherapy-induced neuropathy was induced in mice by intraplantar injection of oxaliplatin into the left hind paw ([Deuis et al., 2013]; [MacDonald et al., 2021]). Oxaliplatin was made up to a dose of 80 µg in 40 µl of 5% glucose solution, due to its instability in chloride-containing saline solution. The number of nocifensive behaviors in 5 min was assessed on the Cold Plate held at 10 °C 24 hr later.

The subject of assay [2] is WT and Tac1::Calca DKO mice. Particulars: background statement on oxaliplatin; ref MacDonald et al., 2021; cited from earlier work. The source says: Lastly, we investigated how dual peptide deletion affected the development of allodynia symptoms, where innocuous stimuli are perceived as painful, in two mouse models of neuropathic pain ([Jensen and Finnerup, 2014]).

Consider `O=C1[O][Pt]2([NH][C@@H]3CCCC[C@H]3[NH]2)[O]C1=O` [oxaliplatin], for which, in assay [1], the “Pain-like behaviors on Cold Plate” value is “both DKO and WT animals displayed pronounced pain-like behaviors”. Also, the “Cold allodynia evoked by oxaliplatin” value in assay [2] is listed as “evokes extreme cold allodynia”.

These data come from PMC11919252 (eLife, 2025).
